Where “and” joins values, the source holds several entries; their conditions need not be identical. Identical values can stand only once.
Legend:
[1] = test system: micronucleated erythrocytes (PCEs); details: rat, in vivo
Protocol: The potential for DMB to induce formation of micronuclei in vivo was evaluated as part of the initial 14-Day toxicity repeat dose toxicity study in rats administered doses of 0, 200, 600 and 1,000 mg/kg/day for 14 days.

[2] = test system: S. typhimurium tester strains TA98, TA100, TA1535, and TA1537; experiment: Ames reverse bacterial mutagenicity test; details: with and without S9 mix
Protocol: (§1) The standard battery of in vitro genetic toxicity tests were conducted with DMB. These tests were conducted with positive and vehicle controls, with and without metabolic activation, as appropriate, and in accordance with accepted guidelines.
(§2) For the Ames (reverse bacterial mutagenicity test), the tester strains used in the mutagenicity assay were S. typhimurium tester strains TA98, TA100, TA1535, and TA1537 and E. coli tester strain WP2uvrA. The assay was conducted in both the presence and absence of S9 mix along with concurrent vehicle and positive controls using three plates per dose.

[3] = test system: E. coli tester strain WP2uvrA; experiment: Ames reverse bacterial mutagenicity test; details: with and without S9 mix
Protocol: as §1, §2

[4] = 28-Day repeat dose toxicity study in rats; type: in vivo, Sprague Dawley rats
Text: Completed toxicology studies conducted with DMB include a single-dose toxicity study in Sprague-Dawley rats, escalating dose toxicity study in Beagle dogs, a repeat dose study of 14-Day duration in Sprague-Dawley rats and repeat-dose toxicity studies of 28-Day duration in Sprague-Dawley rats and Beagle dogs, and 26-Week studies in Sprague-Dawley rats and Beagle dogs. […] Reproductive toxicity studies include two dose-range finding studies, one in Sprague-Dawley rats, the other in New Zealand white rabbits. DMB was administered once a day (QD) orally via gavage; doses are expressed as the sodium salt. In addition, an array of genotoxicity studies were conducted with DMB.
There were no histologic correlates with these findings. […] These changes in organ weight were not associated with abnormal pathology and not considered adverse.
Kidney weight was not increased in the single surviving 2,000/1,500 mg/kg/day male. […] There were no test article-related histomorphologic alterations consistent with the increase in absolute or relative kidney weights at either dose level.
Several clinical pathology changes occurred in the 28-Day Sprague Dawley rat study. […] At ≧1,000 mg/kg/day, decreases in Hgb, Hct, MCV, and MCHC, were observed. Decreases in Hgb, Hct, and MCV were also seen in 500 mg/kg/day females. Activated partial thromboplastin time was decreased in males at ≧1,000 mg/kg/day and females at 2,000/1,500 mg/kg/day and prothrombin time was increased in males of both groups. […] These serum chemistry changes were associated with the decreases seen in body weights and food consumption in these groups.

[5] = Toxicokinetics, 26-week rat study; type: in vivo, Sprague Dawley rats; details: for AUC(0-inf): both sexes, Sprague Dawley, rat, plasma, po, mean of male and female rats
Protocol: DMB was administered to Sprague Dawley rats daily for 26 weeks at doses of 50, 100 and 500 mg/kg/day via oral gavage. Plasma levels of DMB were measured at 1 to 24 hours post-dose on Days 1 and 181. […] Systemic exposure increased with increasing dose level and was greater than dose-proportional on Day 0 and Day 181. The peak and extent of systemic exposure of Sprague Dawley rats to DMB were similar in males and females. Systemic exposure values on Day 181 ranged from 137% to 218% of the values at Day 0 indicating an accumulation of DMB during this time period.
Toxicokinetic information from the 26-week rat (Table 7) and 26-week dog toxicity studies (Table 8) are compared to systemic exposure (AUC) levels determined in a clinical study.

F-reticulocytes = experiment: F-reticulocyte production in anemic baboons; type: in vivo
Protocol: Expression of γ-globin and erythroid cell production was evaluated in a primate model in which baboons are phlebotomized on a daily basis to simulate the chronic RBC destruction associated with hemoglobinopathies. In this model, baboons, aged 2 to 3 years, had 2.5 to 7 mL/kg of blood withdrawn daily, and the volume replaced with an identical volume of normal saline. Hemoglobin levels were lowered relative to control levels, but were maintained between 6.5 to 7.5 g/dL, the level necessary for the modulation of globin genes in this animal species. The animals were supplemented with iron dextran and folic acid. The phlebotomy regimen effectively exchanged the animals' total blood volume every 10 to 20 days.
Globin chain protein synthesis was measured in DMB treated animals using ^3H-leucine-labeled reticulocytes before and 2 and 4 days after treatment. Complete blood counts and reticulocyte counts were monitored 3 times per week and plasma concentrations of the test article was determined. DMB was administered intravenously (IV, daily) or orally via nasogastric gavage under light anesthesia (on 3 alternating days per week for up to 6 weeks), on a dose-escalation schedule with starting doses of 500 to 800 mg/kg. If γ globin induction was observed, lower doses (40-200 mg/kg) were tested. Recombinant human erythropoietin (rhu-EPO) was also administered in separate treatment courses to 2 baboons at doses of 300 U/kg three times per week subcutaneously as a positive control for the erythropoietic effects of DMB. Treatments were performed in individual baboons.
In the anemic baboon model, increases in F-reticulocytes were usually observed within 2-3 days of treatment initiation and diminished within 3 to 5 days of treatment cessation.

clinical = details: human, in vivo
Protocol: Patients were monitored every 2 weeks for laboratory studies, physical examinations, and adverse events. Further, patients were followed for hematologic parameters primarily focusing on hemoglobin and fetal hemoglobin (HbF). In addition, pharmacokinetic samples were obtained on Day 0 and 13, at pre-dose and 2, 4, 6, 8, 12, and 24 hours post-dosing. Hemoglobin was measured at each site using standard hematology equipment. HbF was measured using Varian HPLC. […] Adverse events in treated subjects included headache, upper respiratory infection, pyrexia, fatigue, nausea, and dizziness, but the rates of such events were not markedly different from those observed in the placebo-treated subjects.
A noncompartmental PK analysis was conducted using steady state concentration-time data for Day 13.

In the case of `CCC(C)(C)C(=O)[O-].[Na+]` [DMB, Sodium 2,2-dimethylbutyrate], the “plasma levels of DMB at which micronucleus activity occurred” value ([1]; male, Sprague Dawley) is reported as “exceeding 500 μg/mL”, the “micronucleated PCEs, mean” value ([1]; male, Sprague Dawley, 14 days) is reported as 3.3±0.16 MN PCEs/1,000 PCEs and the “frequency of micronucleated erythrocytes (PCEs) compared to controls” value [1] is reported as “statistically significant increase”. The “increase in micronucleated PCEs in female groups” value [1] was “not observed”, the “percent PCEs” value [1] was “no effect” and the “potential to cause genotoxicity (weight of evidence)” value [1] was “limited potential to cause genotoxicity”. The “cytotoxicity (background lawn growth)” value [2] was “no cytotoxicity was observed”, the mutation counts ([2]; up to 5000 per plate) was “No increase in mutation counts” and the “cytotoxicity (background lawn growth)” value [3] was “no cytotoxicity was observed”. For the same molecule, the mutation counts ([3]; up to 5000 per plate) was “No increase in mutation counts”, the “RBC, lymphocyte, and leukocyte counts” value ([4]; 2,000/1,500 mg/kg/day) was “decreased” and the NOAEL at 28 days ([4]; female, Sprague Dawley, rat, in vivo) was 200 mg/kg/day and 32 mg/kg. The “aspartate aminotransferase (AST)” value ([4]; males 1,000 mg/kg/day) was “slight increases”, the “alanine aminotransferase (ALT)” value ([4]; males 1,000 mg/kg/day, females 2,000/1,500 mg/kg/day) was “slight increases” and the “mean absolute and relative kidney weights” value ([4]; males 500 and 1,000 mg/kg/day, females 1,000 mg/kg/day) was “statistically significant, test article-related increases”. For the same molecule, the “mean absolute and relative liver weights” value ([4]; males and females at 1,000 mg/kg/day) was “statistically significant, test article-related increases”, the prothrombin time ([4]; males of both groups) was “increased” and the “Activated partial thromboplastin time” value ([4]; males ≧1,000 mg/kg/day, females 2,000/1,500 mg/kg/day) was “decreased”. The “Hgb, Hct, MCV, and MCHC” value ([4]; ≧1,000 mg/kg/day) was “decreases”, the “time of peak plasma concentrations” value ([5]; Day 0) was 1 h and the AUC(0-inf) ([5]; 50 mg/kg) was 125 µg·h/mL. The AUC(0-inf) ([5]; 100 mg/kg) was 278 µg·h/mL, the AUC(0-inf) ([5]; 500 mg/kg (NOAEL)) was 3440 µg·h/mL and the “rat AUC0-∞ relative to human AUC0-∞” value ([5]; rat 50 mg/kg vs human 2 mg/kg) was 3.2X. The “rat AUC0-∞ relative to human AUC0-∞” value ([5]; rat 50 mg/kg vs human 5 mg/kg) was 0.4X, the “rat AUC0-∞ relative to human AUC0-∞” value ([5]; rat 50 mg/kg vs human 10 mg/kg) was 0.2X and the “rat AUC0-∞ relative to human AUC0-∞” value ([5]; rat 50 mg/kg vs human 20 mg/kg) was 0.1X. For the same molecule, the “rat AUC0-∞ relative to human AUC0-∞” value ([5]; rat 100 mg/kg vs human 2 mg/kg) was 7.3X, the “rat AUC0-∞ relative to human AUC0-∞” value ([5]; rat 100 mg/kg vs human 5 mg/kg) was 0.9X and the “rat AUC0-∞ relative to human AUC0-∞” value ([5]; rat 100 mg/kg vs human 10 mg/kg) was 0.5X. The “rat AUC0-∞ relative to human AUC0-∞” value ([5]; rat 100 mg/kg vs human 20 mg/kg) was 0.2X, the “rat AUC0-∞ relative to human AUC0-∞” value ([5]; rat 500 mg/kg (NOAEL) vs human 2 mg/kg) was 91X and the “rat AUC0-∞ relative to human AUC0-∞” value ([5]; rat 500 mg/kg (NOAEL) vs human 5 mg/kg) was 10.7X. The “rat AUC0-∞ relative to human AUC0-∞” value ([5]; rat 500 mg/kg (NOAEL) vs human 10 mg/kg) was 6.4X, the “rat AUC0-∞ relative to human AUC0-∞” value ([5]; rat 500 mg/kg (NOAEL) vs human 20 mg/kg) was 2.9 X and the “F-reticulocytes Mean Fold Increase” value (F-reticulocytes; 150 mg/kg/day, IV, 5 days) was 5. The “F-reticulocytes Mean Fold Increase” value (F-reticulocytes; 200 mg/kg/day, IV, 5 days/wk) was 15, the “F-reticulocytes Mean Fold Increase” value (F-reticulocytes; 500 mg/kg/2nd day, Oral, 5 days/wk, 2 wks) was 3.8 and the “F-reticulocytes Mean Fold Increase” value (F-reticulocytes; 500-700 mg/kg/2nd day, Oral) was 3.8. It also gave a Tmax (clinical) of 2.5 to 3.1 h, a half-life (clinical; 10 mg/kg) of 12.1 h and a half-life (clinical; 40 mg/kg) of 10.3 h.

Reference: patent US8618068B2, “Methods and low dose regimens for treating red blood cell disorders” (priority 2009, dated 2013)
